In US10307424B2, “Drug with hepatoprotective activity” (priority 2015, dated 2019):

Legend:
[1] = test system: patients with toxic liver damage, alcoholic hepatitis, alcoholic liver disease (fatty hepatosis), alcoholic liver cirrhosis; test: Efficacy of derivatives No. 1 and No. 2 in patients with liver disease (decrease in ALT, ASAT, GGTP); assay type: in vivo, patients (men and women); conditions: of 30 patients
From the text: The study of the efficacy of derivatives No. 1 and No. 2 was additionally carried out with the participation of patients (men and women aged 25 to 60 years) with the following diagnoses: toxic liver damage, alcoholic hepatitis, alcoholic liver disease (fatty hepatosis), alcoholic liver cirrhosis.
Inclusion criteria: increased levels of alanine aminotransferase (ALT), aspartate aminotransferase (ASAT), gamma glutaminetransferase (GGTP) at least 2 times the upper limit of the normal value.
Patients of the experimental group (30 persons) adhibited derivative No. 1 in the form of capsules containing 250 mg of the drug in a total dose of 1000 mg/day.
Patients of the control group (9 persons) adhibited placebo (capsules filled with chalk).
Patients of the experimental group (30 persons) adhibited derivative No. 2 in the form of lyophilisate for IV injection containing 50 mg of the drug in a total dose of 300 mg/day.
Patients of the control group (10 persons), were administered a 0.9% solution of NaCl as a placebo.

[2] = test system: Acute toxic hepatitis in rats induced by carbon tetrachloride (CCl4); test: Hepatoprotective activity in rats with acute toxic hepatitis induced by CCl4; assay type: in vivo, Wistar rats; conditions: 25 mg/kg; for Survivability of the animals by day 28: Wistar rats; for Body weight of the animals by the 20th day: surviving animals
Protocol: The animals were in standard housing conditions under natural light conditions, with free access to water and food. Acute toxic hepatitis in rats was induced by means of intragastric administration of 50% solution of carbon tetrachloride (CCl 4) in olive oil at a dose of 1 ml/kg for 6 days. […]
The tested preparations were administered orally in the form of a suspension in olive oil once a day after the formation of the model pathology or intravenously at a dose of 25 mg/kg. The weight dynamics of the rats were determined on Sartorius scale.

[3] = test system: toxic hepatitis modelled by combined administration of dichloroethane and acetaminophen; test: Combined effect of subject compounds and known hepatic drugs, toxic hepatitis by dichloroethane and acetaminophen (500 and 500 mg/kg); assay type: in vivo; conditions: untreated control 10
Protocol: Also, the combined effect of the subject compounds and known drugs for the treatment of hepatic diseases was examined.
(§1) For the modeling of toxic hepatitis, the combined administration of dichloroethane and acetaminophen in doses of 500 and 500 mg/kg, respectively, was used. After 10 days all experimental animals confirmed the presence of toxic hepatitis according to the morphological pattern of the liver.

[4] = test system: toxic hepatitis modelled by combined administration of dichloroethane and acetaminophen; test: Toxic hepatitis caused by dichloroethane and acetaminophen (300 and 250 mg/kg), treatment with derivative No. 4; assay type: in vivo, laboratory rats; conditions: for Cytochrome B5 / Cytochrome P450 / Glycogen / Reduced glutathione: liver
Protocol: The efficacy of derivative No. 4 on additional parameters was studied in laboratory rats.
as §1, with “of 300” for “of 500”, “and 250” for “and 500”, “liver. In the untreated control group, by the 10th day of the study, 4 animals out of 10 died.” for “liver.”
From that time, for 10 days, the experimental animals were administered, once a day, derivative No. 4 (50 mg/kg, intragastrically in starch mucus) or derivative No. 4 (10 mg/kg, IV, into the tail vein).

[5] = capsules 250 mg, total dose 1000 mg/day, control 1 of 9
[6] = lyophilisate for IV injection, total dose 300 mg/day, control 1 of 10
[7] = Enteral administration, 50 mg/kg intragastrically once a day, day 10
[8] = Parenteral administration, 10 mg/kg IV once a day, day 10
[9] = Intraventricular administration, once a day

Q: Which results are given for `O=C1NC(O)(O)C(=NO)C(=O)N1c1ccc(Br)cc1` [Derivative 1, 3-(4-bromophenyl)-6,6-dihydroxy-5-hydroxyiminohexahydro-2,4-pyrimidinedione]?
A: The number of patients in the group with a decrease in ALT by 30% or more [1, 5]: 23; The number of patients in the group with a decrease in ASAT by 30% or more [1, 5]: 23; The number of patients in the group with a decrease in GGTP by 30% or more ([1]; capsules 250 mg, total dose 1000 mg/day, control 2 of 9): 25; Survivability of the animals by day 28 ([2]; Intravenous administration): 57%; Body weight of the animals by the 20th day ([2]; Intravenous administration): 171 ± 5%; Survivability of the animals by day 28 ([2]; once a day): 59%; Survivability by the 10th day [3]: 40%

Q: Which “The number of patients in the group with a decrease in ALT by 30% or more” value [1, 6] does the source give for `O=C1NC(O)(O)C(=N[O-])C(=O)N1c1ccc(Br)cc1.[Na+]` [Derivative 2] here?
A: 17

Q: What about the “The number of patients in the group with a decrease in ASAT by 30% or more” value [1, 6] of the same compound?
A: 19

Q: What about the “The number of patients in the group with a decrease in GGTP by 30% or more” value ([1]; lyophilisate for IV injection, total dose 300 mg/day, control 2 of 10) of the same compound?
A: 25

Q: What about the “Survivability by the 10th day” value [3] of the same compound?
A: 40%

Q: For `NC(CO)(CO)CO.O=C1NC(O)(O)C(=NO)C(=O)N1c1ccc(Br)cc1` [Derivative 4], which “Survivability by the 10th day” value [3] is on record?
A: 40%

Q: What about the “-SH-group” value [4, 7] of the same compound?
A: 900 ± 50 μmol/100 ml

Q: And the ALP [4, 7]?
A: 0.73 ± 0.09 μkat/l

Q: And the ALT [4, 7]?
A: 0.54 ± 0.08 μkat/l

Q: What about the ASAT [4, 7] of the same compound?
A: 0.72 ± 0.06 μkat/l

Q: And the Body weight [4, 7]?
A: 180 ± 15 g

Q: What about the “Bromsulfalein, at the 10th minute after the introduction” value [4, 7] of the same compound?
A: 19.3 ± 1.1 mg %

Q: What about the Ceruloplasmin [4, 7] of the same compound?
A: 520 ± 50 mg/L

Q: What about the ChE [4, 7] of the same compound?
A: 2.1 ± 0.2 µmol/g/min

Q: And the Cholesterol [4, 7]?
A: 1.58 ± 0.21 mmol/L

Q: And the Glucose [4, 7]?
A: 4.5 ± 0.4 mmol/L

Q: And the Hexenalum sleep [4, 7]?
A: 27.0 ± 1.5 min

Q: What about the LDH [4, 7] of the same compound?
A: 6.82 ± 0.34 mmol/h/L

Q: What about the Prothrombin time [4, 7] of the same compound?
A: 43 ± 5 s

Q: And the Timole test [4, 7]?
A: 2.86 ± 0.44 units of turbidity

Q: What about the Total lipids [4, 7] of the same compound?
A: 3.2 ± 0.1 g/L

Q: And the Total protein [4, 7]?
A: 52 ± 5 g/L

Q: What about the “-SH-group” value [4, 8] of the same compound?
A: 640 ± 50 μmol/100 ml

Q: And the ALP [4, 8]?
A: 0.82 ± 0.12 μkat/l

Q: And the ALT [4, 8]?
A: 0.69 ± 0.06 μkat/l

Q: What about the ASAT [4, 8] of the same compound?
A: 0.76 ± 0.08 μkat/l

Q: And the Body weight [4, 8]?
A: 185 ± 5 g

Q: What about the “Bromsulfalein, at the 10th minute after the introduction” value [4, 8] of the same compound?
A: 23.0 ± 1.6 mg %

Q: And the Ceruloplasmin [4, 8]?
A: 580 ± 80 mg/L

Q: What about the ChE [4, 8] of the same compound?
A: 2.2 ± 0.2 µmol/g/min

Q: What about the Cholesterol [4, 8] of the same compound?
A: 1.70 ± 0.26 mmol/L

Q: What about the Glucose [4, 8] of the same compound?
A: 4.6 ± 0.2 mmol/L

Q: What about the Hexenalum sleep [4, 8] of the same compound?
A: 29.5 ± 1.5 min

Q: And the LDH [4, 8]?
A: 8.24 ± 0.35 mmol/h/L

Q: And the Timole test [4, 8]?
A: 3.22 ± 0.53 units of turbidity

Q: And the Total lipids [4, 8]?
A: 2.9 ± 0.2 g/L

Q: What about the Total protein [4, 8] of the same compound?
A: 48 ± 4 g/L

Q: What about the Death of animals ([4]; enterally or parenterally injected, untreated control: 4 animals out of 10 died by the 10th day) of the same compound?
A: not a single animal died

Q: What about the “Cytochrome B5” value [4, 7] of the same compound?
A: 0.54 ± 0.07 mmol/mg protein ×10^−4

Q: And the “Cytochrome P450” value [4, 7]?
A: 0.98 ± 0.06 mmol/mg protein ×10^−4

Q: What about the Glycogen [4, 7] of the same compound?
A: 1600 ± 100 mg %

Q: And the Reduced glutathione [4, 7]?
A: 165 ± 10 mg %

Q: What about the “Cytochrome B5” value [4, 8] of the same compound?
A: 0.68 ± 0.04 mmol/mg protein ×10^−4

Q: And the “Cytochrome P450” value [4, 8]?
A: 1.12 ± 0.03 mmol/mg protein ×10^−4

Q: What about the Glycogen [4, 8] of the same compound?
A: 1500 ± 200 mg %

Q: What about the Reduced glutathione [4, 8] of the same compound?
A: 170 ± 10 mg %

Q: How did the “Survivability of the animals by day 28” value ([2]; Intravenous administration) turn out when `NCCCO.O=C1NC(O)(O)C(=NO)C(=O)N1c1ccc(Br)cc1` [Derivative 5] was run?
A: 60%

Q: What about the “Body weight of the animals by the 20th day” value (“Body weight of the animals” for short) ([2]; Intravenous administration) of the same compound?
A: 168 ± 7%

Q: What about the “Survivability of the animals by day 28” value [2, 9] of the same compound?
A: 61%

Q: What about the “Body weight of the animals” value [2] of the same compound?
A: 161 ± 9%

Q: `C[S+](CC[C@H](N)C(=O)[O-])C[C@H]1O[C@@H](n2cnc3c(N)ncnc32)[C@H](O)[C@@H]1O` (some centres unmarked) [Prototype, S-Adenosyl methionine-ademetionine, reference compound] was tested. Which “Survivability of the animals by day 28” value ([2]; Intravenous administration) did it give?
A: 48%

Q: And the “Body weight of the animals” value ([2]; Intravenous administration)?
A: 159 ± 4%

Q: What about the “Survivability of the animals by day 28” value [2, 9] of the same compound?
A: 46%

Q: And the “Body weight of the animals” value [2]?
A: 160 ± 4%

Q: And the “Survivability by the 10th day” value [3]?
A: 30%

Q: How did the “Survivability by the 10th day” value [3] turn out when `C[C@H](CCC(=O)O)[C@H]1CC[C@H]2[C@@H]3[C@@H](O)C[C@@H]4C[C@H](O)CC[C@]4(C)[C@H]3CC[C@]12C` [Ursodeoxycholic acid, ursodeoxycholic acid, reference compound] was run?
A: 20%
